The values that follow come from patent US9303009B2, “Migrastatins and uses thereof” (Sloan-Kettering Institute for Cancer Research, priority 2011, dated 2016).

In one data set the test system is A549 cells. The data set can be described thus: in vitro wound-healing (scratch) assay. The format is cell-based, human. Particulars: for migration in response to a scratch wound: 100 μM. The procedure:
This Example evaluates the anti-metastatic properties of new migrastatin analogs by assessing their ability to inhibit in vitro cancer cell migration in a wound-healing assay and their chemotaxis in a transwell migration assay. […] Similar results were obtained with a panel of human lung cancer cell lines (H1975, H647, H522, H1703, data not shown).
For the results depicted in FIG. 3, A549 cancer cells were grown as nearly confluent monolayer culture and then starved overnight in medium containing 0.5% FCS. Cell monolayers were then scratched using pipette tip, photographed, and incubated with a 6 log-scaled concentration range of ME and CME from 10^−3 to 10^−8M, with or without 2% FCS. After 12 H, areas were fixed, stained and photographed using computer-assisted microscopy. Micrographs (4× magnification) are presented, showing the A549 cancer cell migration across the scratches in absence of serum (no migration), presence of serum (migration), and in the presence of serum plus CME or ME at 100 μM or 100 nM.
Wound-Healing Assay: Cancer cells migration was measured using an “in vitro wound-healing assay” (or scratch assay) performed in a 12-well plate (Becton Dickinson). Briefly, cancer cells were seeded at a density of 5-10×10^4 cells per well, grown to near confluent monolayers in 10% serum-supplemented M5 medium and then starved overnight in a low serum medium (0.5% FCS). Perpendicular wounds were scratched through the cell monolayer using a sterile 200 μL pipette tip. The cells were then washed twice very gently using PBS and the scratched areas were photographed at 4× and 20× magnification using computer-assisted microscopy. […] Each well was photographed at 4× and 20× magnification and the pictures analyzed with CellProfiler2.0 cell image analysis software as previously described, (Carpenter A E, Jones T R, Lamprecht M R, Clarke C, Kang I H et al. (2006), Genome Biology 7(10):R100). The migration in response to the test condition was calculated as cell coverage of the original cell-free zone and related to DMSO vehicle control.

The test system of a further data set is A549. The data set can be described thus: transwell migration (modified Boyden chamber, serum gradient). The format is cell-based. Particulars: Homo sapiens, 12 hour migration, mean +/- SEM of three experiments, read-out: IC50, inhibition of transwell migration. How it is done:
(§1) Migration assay: Cancer cell chemotaxis was performed towards a serum gradient in a modified Boyden chamber consisting of a cell culture insert (6.4 mm diameter, 8-μm pore polyethylene tetraphtalate membrane, [Becton Dickenson]) seated in each well of a 24-well companion plate (Becton Dickinson). Briefly, cancer cells were grown as subconfluent monolayer cultures then starved for 36 hours in serum-free M5 medium. After detachment and dissociation with 5 mM EDTA, single-cell suspensions were prepared by filtration through a 35 μm mesh cell strainer (Becton Dickinson). Cells were counted and a total of 10^5 cells suspended in serum-free medium were seeded into the upper chamber of an insert, then positioned in a 24-well plate, containing medium with or without 10% serum. When used, drugs or DMSO (vehicle) were added to the medium at 0.2% in both chambers. Migration assays were carried out for 12 hours in a humidified incubator at 37° C. with 5% CO2. Cells were then fixed with 3.7% formaldehyde, permeabilized with ice cold methanol and stained with a 0.2% Crystal violet solution. Non-migratory cells on the upper side of the insert were removed with a cotton swab. For quantification, three randomly selected fields on the lower side of the insert were photographed at 4× and 20× magnification using computer-assisted microscopy, and analyzed with CellProfiler2.0 cell image analysis software). The migration in response to the test condition was calculated relative to the DMSO vehicle control.
(§2) This assay provided reproducibly robust data, allowing dose-response studies to be carried out to determine the half maximal inhibitory concentration (IC50). […] Because we noticed a mild toxicity and effects on cell proliferation in the millimolar range, experiments with CME and ME at 1 mM or more were not included for the IC50 calculation.
(§3) Lung Cancer cell lines chemotaxis was performed in cell culture inserts after serum starvation and an overnight preincubation with an incremental logarithmic scale of drug concentration (ME and CME from 10^−3 to 10^−10M). Cancer cell migration in response to a serum gradient was measured after a 12 hour-long incubation in presence of different concentrations of ME or CME in both upper and lower chamber (three wells at each dose). Cells were then fixed and stained with Crystal violet, and photographed. […] Data are expressed as the mean+/−SEM of three independent experiments. Each experiment was performed in triplicate.

In a further data set the test system is H299. The description is as above. Particulars: Homo sapiens, 12 hour migration, mean +/- SEM of three experiments, read-out: IC50, inhibition of transwell migration. The format is cell-based. The procedure:
as §1, §2, §3

The subject of data set [1] is A549, H1975, and H299 cancer cells. The data set can be described thus: transwell migration, panel of NSCLC lines. In kind it is cell-based, human. Particulars: for IC50: Homo sapiens, range over A549, H1975 and H299, read-out: IC50 values across cell lines; for toxicity and effects on cell proliferation: in the millimolar range. How it is done: as §1, §2, §3
The subject of data set [2] is lung cancer (H299-GL, H522-GL, H647-GL, A549-GL, H1993, H1075-GL, H1373-GL H1703 cells). The data set can be described thus: toxicity by alamarBlue, lung cancer cell lines. In kind it is cell-based. Particulars: mean of 8 cell lines. The procedure:
Dilutions of DMSO without compound were used as a control. After 18 hrs or 2 days, the cultures were pulsed with 6 μl of alamarBlue® (Invitrogen Inc. Grand Island, N.Y.) and incubated overnight. The alamarBlue® provides a cell growth indicator based on detection of metabolic activity. The assay system incorporates an oxidation-reduction indicator that both fluoresces and changes color in response to chemical reduction of growth medium resulting from cell growth. The fluorescence intensity was measured using a Synergy H1 Microplate Reader (Biotek Inc, Winooski, VT) and a dose-response curve established for IC50 determination.
On the technique in general: Alamar Blue is a resazurin reagent that responds to reducing activity.

`CO[C@H]1/C=C/CCCCCOC/C(C)=C\[C@@H](C)[C@@H]1O` [ME, migrastatin ether]: in the data set with A549 cells, the “migration in response to a scratch wound” value is reported as “almost completely blocked”. Also, the IC50 in the data set with A549 is 1.93 ± 0.41 µM; in the data set on H299, 8.2 ± 1.75 µM; in data set [1], 1.5 to 8.2 µM. Besides, in data set [1], the “toxicity and effects on cell proliferation” value is recorded as “mild toxicity”. Also, in data set [2] (48 h exposure), the “Estimated lethal doses (LD50)” value was 639.8 µM.
`CO[C@H]1/C=C/CCCCCOC/C(C)=C\[C@@H](C)[C@@H]1OCC(=O)O` [CME, Carboxymethyl migraether]: in the data set on A549 cells, the “migration in response to a scratch wound” value is “almost completely blocked”. This molecule also showed an inhibition of migration in the data set on A549 cells (submicromolar concentrations) of 32%. For the same molecule, the IC50 is 0.66 ± 0.2 µM in the data set on A549, 5.02 ± 1.13 µM with H299 and 0.5 to 5 µM in data set [1]. Besides, the “toxicity and effects on cell proliferation” value in data set [1] is listed as “mild toxicity”. The “Estimated lethal doses (LD50)” value was 553.9 µM in data set [2] (18 h exposure) and 697.9 µM in data set [2] (48 h exposure).
